One data set concerns NIH 3T3 cells. Kind of data set: UV-activated nanomechanical necrosis, live cell confocal microscopy, NIH 3T3. It is filed as cell-based, mouse. The settings on record: for Time of Full Necrosis / Time of Initial Necrosis / % acceleration for full necrosis: 355 nm UV; for % acceleration for full necrosis: versus UV upon blank cells.
The test system of another data set is PC-3 cells. Description: 24 hours incubation without UV: proliferation and apoptosis (Annexin V, Image Cytometry). It is filed as cell-based, human. As for the experimental part: When PC-3 cells are loaded at 0.5 or 1.0 μM with 9 or 10, washed three times (Method B) or unwashed (Method A) after 24 hours of incubation, the cells visually appear without major signs of toxicity. However, the cells which had been incubated with 9 or 10 over 24 hours were not dividing as prolifically. The cultures appear to be populated ˜25% less in the presence of 9 and 20% of the cells in 10 compared to control untreated cells (FIGS. 12A-E).
In order to further investigate this point, these cells were collected via gentle centrifugation and re-suspended in fresh PBS and analyzed by Image Cytometry. Using Annexin V, these cells were all confirmed to show signs of apoptosis at 93±5%. This is in contrast to the remaining coverslip surface-bound cells that appear healthy.
These latter types of non-apoptotic cells show identical percentage of necrosis acceleration upon subsequent UV-activation of the cell-surface bound nanomachines compared to their shorter incubation time analogues. Thus, it appears that, upon 24 hour incubation, a noticeable amount of cells have nanomachines 9 and 10 either bound to vital cell membrane channels or transport proteins or they are internalized, subsequently shutting down some natural homeostatic mechanisms that leads to programmed cell death (FIGS. 12A-E). Furthermore, this is not the case with shorter incubation times regardless of whether Method A or B is used.

The mark [1] stands for this setting: NIH 3T3, Method B (washed three times).

SMILES strings stand for the structures. Starred links: 1 amine or outer side, 2 acyl side, 3 side chain; linkers in the order of their positions; H or OH if unused. Positions of bridges follow the written chain, without caps; N, C: chain ends. Residues, ends and D or L forms follow the SMILES beside them. Chains are numbered I, II in the order given. X2 = C[C@@H]1Cc2ccc3ccccc3c2C1=C1c2cc(C#CCCn3cc(C(=O)[*:1])nn3)ccc2Sc2ccc(C#CCCn3cc(C(=O)[*:2])nn3)cc21

Consider `CC(C)[C@H](NC(=O)[C@H](CCCNC(=N)N)NC(=O)[C@@H](NC(=O)[C@H](CC(N)=O)NC(=O)[C@H](CO)NC(=O)c1cn(CCC#Cc2ccc3c(c2)C(=C2c4c(ccc5ccccc45)C[C@H]2C)c2cc(C#CCCn4cc(C(=O)N[C@@H](CO)C(=O)N[C@@H](CC(N)=O)C(=O)N[C@H](C(=O)N[C@@H](CCCNC(=N)N)C(=O)N[C@H](C(=O)N[C@@H](C)C(=O)N5CCC[C@H]5C(=O)O)C(C)C)[C@@H](C)O)nn4)ccc2S3)nn1)[C@@H](C)O)C(=O)N[C@@H](C)C(=O)N1CCC[C@H]1C(=O)O` [Compound 9] (I: SNTRVAP-OH / II: SNTRVAP-OH; linker I:N-II:N via X2), for which the “Time of Full Necrosis” value is recorded as 570 s with NIH 3T3 cells (NIH 3T3, Method A (no washing)) and 600 s with NIH 3T3 cells (setting [1]). Also, the “Time of Initial Necrosis” value in the data set on NIH 3T3 cells (NIH 3T3, Method A (no washing)) is recorded as 300 s; in the data set with NIH 3T3 cells (setting [1]), 300 s. The “% acceleration for full necrosis” value is 5% with NIH 3T3 cells (NIH 3T3, Method A) and 0% in the data set with NIH 3T3 cells (NIH 3T3, Method B). In addition, in the data set with NIH 3T3 cells (NIH 3T3, incubated 24 hours), the “UV-accelerated nanomechanical necrosis after 24 hours incubation (in words)” value is on record as “no change in rates”. The “cultures populated less compared to control untreated cells” value with PC-3 cells (PC-3, 0.5 or 1.0 μM, 24 hours of incubation, no UV) is around 25%. The “mobilized cells showing signs of apoptosis (Annexin V)” value in the data set with PC-3 cells (PC-3, 24 hours incubation, cells collected from culture media) was 93±5%.

The values are drawn from US11565003B2, “Mechanical opening of lipid bilayers by molecular nanomachines” (William Marsh Rice University, priority 2016, dated 2023).
